In patent US12036312B2, “Non-aqueous topical compositions comprising a halogenated salicylanilide” (priority 2016, dated 2024):
Converted amounts (≈) assume the structure as drawn. Where two headings read alike, the source gives them in different places.

Key:
S. pyogenes = assay: Minimum inhibitory concentration (MIC) assay, Example 1, S. pyogenes strains; format: cell-based; details: Streptococcus pyogenes, read-out: MIC
Protocol: Twenty-one other MRSA and methicillin-sensitive S. aureus strains, and 4 Streptococcus pyogenes strains, were also included in the study (Table 2). These covered fusidic acid- and mupirocin-resistant strains, these two types of resistance being of clinical relevance.
Strains were conserved in Luria Bertani (LB) Broth (S. aureus) or Brain Heart Infusion (BHI) (S. pyogenes) supplemented with glycerol 15% (v/v) at −80° C., and reactivated by isolation on LB (S. aureus) or BHI (S. pyogenes) agar plates. Strains were cultivated in Mueller Hinton (MH) Broth-cation adjusted (S. aureus) supplemented with lysed horse blood 2.5% (v/v) (S. pyogenes). All strains were cultivated at 37° C., aerobically for S. aureus strains.
Bacterial cultures were stopped in their exponential growth phase and plates were inoculated with the approximate concentration of 10^3 cells per well. Plates were incubated at 37° C. for 18 hours (S. aureus) or 24 hours (S. pyogenes). Optical density at a wavelength of 600 nm was measured at the end of the incubation time. […] Experiments were performed at least as triplicate biological replicates with all strains.

[1] = tested on: MRSA 01, MRSA 15 (fusidic acid-resistant), MRSA 16 (mupirocin-resistant); assay: Mutational frequency evaluation (spontaneous single-step mutations), Example 1; format: cell-based, Staphylococcus aureus; details: at MIC×1 (Example 1)

In the case of `O=C(Nc1ccc([N+](=O)[O-])cc1Cl)c1cc(Cl)ccc1O` [Niclosamide, niclosamide], the MIC (S. pyogenes; ATCC12385, S. pyogenes strain ATCC 12385) was 1.6 µg/mL (≈ 4.89 µM), the MIC (S. pyogenes; ATCC19615, S. pyogenes strain ATCC 19615) was 3.2 µg/mL (≈ 9.78 µM) and the MIC (S. pyogenes; CCUG25571, S. pyogenes strain CCUG 25571) was 3.2 µg/mL (≈ 9.78 µM). The MIC (S. pyogenes; S. pyogenes strain 01) was 3.2 µg/mL (≈ 9.78 µM) and the mutational frequency [1] was < 4×10^−10.
